Source: patent US11964953B2, “Substituted aminothiazoles as DGKzeta inhibitors for immune activation” (Bayer Aktiengesellschaft, priority 2020, dated 2024)

molecular target: human DGKζ (Homo sapiens (Human), UniProt Q13574); assay: Human DGKζ kinase activity inhibition assay (ADP-Glo); format: biochemical; settings: in vitro human DGKζ kinase activity inhibition assay; read-out: IC50
Method in brief: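 Enzyme was C-terminally FLAG-tagged full-length recombinant human DGKζ from baculovirus-infected insect cells. Substrate preparation used octyl-β-D-glucopyranoside in 50 mM MOPS pH 7.4 with sonication; ADP generated was quantified by ADP-Glo luminescence as activity measure.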

human DGKζ, sequence (Q13574 other isoform, or with tags, fused parts or gaps): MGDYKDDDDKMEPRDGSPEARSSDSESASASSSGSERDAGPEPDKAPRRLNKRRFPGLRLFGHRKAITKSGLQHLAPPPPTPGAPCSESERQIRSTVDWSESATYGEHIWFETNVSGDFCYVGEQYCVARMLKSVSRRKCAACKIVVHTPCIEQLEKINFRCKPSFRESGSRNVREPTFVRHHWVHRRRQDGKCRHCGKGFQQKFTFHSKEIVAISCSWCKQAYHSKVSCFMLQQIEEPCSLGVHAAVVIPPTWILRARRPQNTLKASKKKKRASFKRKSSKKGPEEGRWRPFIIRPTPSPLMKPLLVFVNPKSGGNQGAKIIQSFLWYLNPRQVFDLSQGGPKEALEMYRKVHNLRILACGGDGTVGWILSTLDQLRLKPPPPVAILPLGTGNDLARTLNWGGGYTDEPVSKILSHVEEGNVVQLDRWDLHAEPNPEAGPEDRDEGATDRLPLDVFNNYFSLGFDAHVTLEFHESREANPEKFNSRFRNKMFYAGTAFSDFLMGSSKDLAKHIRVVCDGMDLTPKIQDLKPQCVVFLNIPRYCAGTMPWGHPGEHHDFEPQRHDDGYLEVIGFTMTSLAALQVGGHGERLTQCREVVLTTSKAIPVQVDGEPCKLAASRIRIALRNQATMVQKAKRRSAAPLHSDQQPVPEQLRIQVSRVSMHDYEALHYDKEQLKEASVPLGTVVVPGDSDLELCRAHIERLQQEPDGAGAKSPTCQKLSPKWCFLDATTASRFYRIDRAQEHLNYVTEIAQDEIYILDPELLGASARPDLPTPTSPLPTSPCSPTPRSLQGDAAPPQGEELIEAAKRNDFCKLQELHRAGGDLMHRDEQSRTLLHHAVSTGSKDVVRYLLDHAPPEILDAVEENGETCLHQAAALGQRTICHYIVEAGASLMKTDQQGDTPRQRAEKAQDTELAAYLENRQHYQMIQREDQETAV

IC50 [nM] | Structure (SMILES)
424 | COc1ccc(C(=O)c2sc(N(c3ccc(Cl)c(F)c3)C(C)C(N)=O)nc2N)cc1 (single isomer, unassigned) [Example 59.2, 2-(N-[4-amino-5-(4-methoxybenzoyl)thiazol-2-yl]-4-chloro-3-fluoro-anilino)propanamide]
5180 | CC(C(N)=O)N(c1ccc(F)cc1)c1nc(N)c(C(=O)c2ccccc2)s1 (single isomer, unassigned) [Example 61.1, 2-(N-(4-amino-5-benzoyl-thiazol-2-yl)-4-fluoro-anilino)propanamide]
5170 | Cc1ccc(C(=O)c2sc(N(c3ccc(F)cc3)C(C)C(N)=O)nc2N)cc1 (single isomer, unassigned) [Example 63.1, 2-(N-[4-amino-5-(4-methylbenzoyl)thiazol-2-yl]-4-fluoro-anilino)propanamide]
18.5 | Cc1ccc(C(=O)c2sc(N(c3ccc(F)cc3)C(C)C(N)=O)nc2N)cc1 (single isomer, unassigned) [Example 63.2, 2-(N-[4-amino-5-(4-methylbenzoyl)thiazol-2-yl]-4-fluoro-anilino)propanamide]
3720 | Cc1ccc(N(c2nc(N)c(C(=O)c3ccccc3)s2)C(C)C(N)=O)cc1 (single isomer, unassigned) [Example 73.1, 2-(N-(4-amino-5-benzoyl-thiazol-2-yl)-4-methyl-anilino)propanamide]
82.1 | Cc1ccc(N(c2nc(N)c(C(=O)c3ccccc3)s2)C(C)C(N)=O)cc1 (single isomer, unassigned) [Example 73.2, 2-(N-(4-amino-5-benzoyl-thiazol-2-yl)-4-methyl-anilino)propanamide]
17100 | CC(C(N)=O)N(c1cccc(F)c1)c1nc(N)c(C(=O)c2ccccc2)s1 (single isomer, unassigned) [Example 74.1, 2-(N-(4-amino-5-benzoyl-thiazol-2-yl)-3-fluoro-anilino)propanamide]
> 20000 | CC(C(N)=O)N(c1nc(N)c(C(=O)c2ccccc2)s1)c1ccccc1F (single isomer, unassigned) [Example 75.1, 2-(N-(4-amino-5-benzoyl-thiazol-2-yl)-2-fluoro-anilino)propanamide]
114 | Cc1cccc(N(c2nc(N)c(C(=O)c3ccccc3)s2)C(C)C(N)=O)c1 (single isomer, unassigned) [Example 76.1, 2-(N-(4-amino-5-benzoyl-thiazol-2-yl)-3-methyl-anilino)propanamide]
234 | Cc1ccccc1N(c1nc(N)c(C(=O)c2ccccc2)s1)C(C)C(N)=O (single isomer, unassigned) [Example 77.1, 2-(N-(4-amino-5-benzoyl-thiazol-2-yl)-2-methyl-anilino)propanamide]
10200 | Cc1ccccc1N(c1nc(N)c(C(=O)c2ccccc2)s1)C(C)C(N)=O (single isomer, unassigned) [Example 77.2, 2-(N-(4-amino-5-benzoyl-thiazol-2-yl)-2-methyl-anilino)propanamide]
> 20000 | CC(C(N)=O)N(c1cnn(C)c1)c1nc(N)c(C(=O)c2ccccc2)s1 (single isomer, unassigned) [Example 78.1, 2-[(4-amino-5-benzoyl-thiazol-2-yl)-(1-methylpyrazol-4-yl)amino]propanamide]
7550 | CC(C(N)=O)N(c1cnn(C)c1)c1nc(N)c(C(=O)c2ccccc2)s1 (single isomer, unassigned) [Example 78.2, 2-[(4-amino-5-benzoyl-thiazol-2-yl)-(1-methylpyrazol-4-yl)amino]propanamide]

The next lines start with the compound.

Structure (SMILES) | IC50 [nM]
CC(C(N)=O)N(c1ccc(F)c(F)c1)c1nc(N)c(C(=O)c2ccncc2)s1 (single isomer, unassigned) [Example 50.2, 2-(N-[4-amino-5-(pyridine-4-carbonyl)thiazol-2-yl]-3,4-difluoro-anilino)propanamide] | 14300
COc1ccc(C(=O)c2sc(N(c3ccc(F)c(F)c3)C(C)C(N)=O)nc2N)cn1 (single isomer, unassigned) [Example 52.1, 2-(N-[4-amino-5-(6-methoxypyridine-3-carbonyl)thiazol-2-yl]-3,4-difluoro-anilino)propanamide] | 72.7
COc1ccc(C(=O)c2sc(N(c3ccc(F)c(F)c3)C(C)C(N)=O)nc2N)cn1 (single isomer, unassigned) [Example 52.2, 2-(N-[4-amino-5-(6-methoxypyridine-3-carbonyl)thiazol-2-yl]-3,4-difluoro-anilino)propanamide] | 11400
CC(C(N)=O)N(c1ccc(F)c(F)c1)c1nc(N)c(C(=O)c2ccc(C(F)(F)F)nc2)s1 (single isomer, unassigned) [Example 53.1, 2-(N-[4-amino-5-[6-(trifluoromethyl)pyridine-3-carbonyl]thiazol-2-yl]-3,4-difluoro-anilino)propanamide] | 20.3
CC(C(N)=O)N(c1ccc(F)c(F)c1)c1nc(N)c(C(=O)c2ccc(C(F)(F)F)nc2)s1 (single isomer, unassigned) [Example 53.2, 2-(N-[4-amino-5-[6-(trifluoromethyl)pyridine-3-carbonyl]thiazol-2-yl]-3,4-difluoro-anilino)propanamide] | 1780
Cc1nc(N(c2ccc(F)c(F)c2)C(C)C(N)=O)sc1C(=O)c1ccc(OC(F)F)cc1 (single isomer, unassigned) [Example 55.1, 2-(N-[5-[4-(difluoromethoxy)benzoyl]-4-methyl-thiazol-2-yl]-3,4-difluoro-anilino)propanamide] | 6
Cc1nc(N(c2ccc(F)c(F)c2)C(C)C(N)=O)sc1C(=O)c1ccc(OC(F)F)cc1 (single isomer, unassigned) [Example 55.2, 2-(N-[5-[4-(difluoromethoxy)benzoyl]-4-methyl-thiazol-2-yl]-3,4-difluoro-anilino)propanamide] | 835
CC(C(N)=O)N(c1ccc(Cl)c(F)c1)c1nc(N)c(C(=O)c2ccncc2)s1 (single isomer, unassigned) [Example 56.1, 2-(N-[4-amino-5-(pyridine-4-carbonyl)thiazol-2-yl]-4-chloro-3-fluoro-anilino)propanamide] | 50.5
CC(C(N)=O)N(c1ccc(Cl)cc1)c1nc(N)c(C(=O)c2ccncc2)s1 (single isomer, unassigned) [Example 57.1, 2-(N-[4-amino-5-(pyridine-4-carbonyl)thiazol-2-yl]-4-chloro-anilino)propanamide] | 137
CC(C(N)=O)N(c1ccc(Cl)cc1)c1nc(N)c(C(=O)c2ccncc2)s1 (single isomer, unassigned) [Example 57.2, 2-(N-[4-amino-5-(pyridine-4-carbonyl)thiazol-2-yl]-4-chloro-anilino)propanamide] | 14600
COc1ccc(C(=O)c2sc(N(c3ccc(Cl)cc3)C(C)C(N)=O)nc2N)cc1 (single isomer, unassigned) [Example 58.1, 2-(N-[4-amino-5-(4-methoxybenzoyl)thiazol-2-yl]-4-chloro-anilino)propanamide] | 8
COc1ccc(C(=O)c2sc(N(c3ccc(Cl)cc3)C(C)C(N)=O)nc2N)cc1 (single isomer, unassigned) [Example 58.2, 2-(N-[4-amino-5-(4-methoxybenzoyl)thiazol-2-yl]-4-chloro-anilino)propanamide] | 1050
